Source: patent US20220125959A1, “PROSTATE-SPECIFIC MEMBRANE ANTIGEN (PSMA) INHIBITORS AS DIAGNOSTIC AND RADIONUCLIDE THERAPEUTIC AGENTS” (FIVE ELEVEN PHARMA INC., priority 2019, published 2022)

How the values were obtained:
PSMA [1] = target: T1, PSMA (Homo sapiens, UniProt Q04609); experiment: PSMA competitive binding, LNCaP cells with [68Ga]PSMA-11; parameters: LNCaP with 0.2 nM; endogenous in cells; host or cells: LNCaP cells (suspension); settings: n = 3; read-out: IC50 (LNCaP human PCa cells and [68Ga]PSMA-11)
Experimental: (§1) In vitro binding assays were carried out to determine the PSMA binding affinity of various compounds. By incubating PSMA positive cells either with: 1). LNCaP with 0.2 nM [^68Ga]PSMA-11 or [^125I]MIP-1095, as the ligand, in the presence of 10 different concentrations of competing ligands; non-specific binding was defined with 20 μM 2-PMPA (2-(phosphonomethyl)pentanedioic acid); or 2). PC-3 PIP cells with [^125I]MIP-1095 (0.18 nM diluted in PBS) in presence of different concentration of test compounds ([…] diluted in PBS containing 0.1% bovine serum albumin). Nonspecific binding (NSB) was defined with 2 μM the known PSMA inhibitor, PSMA-617. After incubation at 37° C. for 1 h, the bound and free fractions were separated by vacuum filtration through GF/B filters using a Brandel M-24R cell harvester. The filters were washed twice with cold Tris-HCl buffer (50 mM, pH=7.4), and the radioactivity on the filters was counted in a gamma counter (Wizard^2, Perkin-Elmer) with 50% efficiency. The nonspecific bound was less than 10% of the total bound. Data were analyzed using GraphPad Prism 6.0 with a nonlinear regression algorithm to obtain the half maximal inhibitory concentration (IC50).
(§2) The binding affinities to PSMA of the test compounds were measured by a competitive binding assay using either LNCap or PC-3 PIP cells suspension and the known radiotracers known to have high affinity and specificity to PSMA, [^68Ga]PSMA-11 or [^125I]MIP-1095. The IC50 values of four iodinated compounds, three DOTA, DOTAG and DOTA(GA)2 related compounds and two known PSMA inhibitors are shown in Table 1. Complexes of compound 4 and natural Ga and natural Lu were also tested. […] After labeling with radioisotope they are expected to bind to the tumor tissues over expressing PSMA binding sites.
Target sequence in this assay (Q04609 whole entry): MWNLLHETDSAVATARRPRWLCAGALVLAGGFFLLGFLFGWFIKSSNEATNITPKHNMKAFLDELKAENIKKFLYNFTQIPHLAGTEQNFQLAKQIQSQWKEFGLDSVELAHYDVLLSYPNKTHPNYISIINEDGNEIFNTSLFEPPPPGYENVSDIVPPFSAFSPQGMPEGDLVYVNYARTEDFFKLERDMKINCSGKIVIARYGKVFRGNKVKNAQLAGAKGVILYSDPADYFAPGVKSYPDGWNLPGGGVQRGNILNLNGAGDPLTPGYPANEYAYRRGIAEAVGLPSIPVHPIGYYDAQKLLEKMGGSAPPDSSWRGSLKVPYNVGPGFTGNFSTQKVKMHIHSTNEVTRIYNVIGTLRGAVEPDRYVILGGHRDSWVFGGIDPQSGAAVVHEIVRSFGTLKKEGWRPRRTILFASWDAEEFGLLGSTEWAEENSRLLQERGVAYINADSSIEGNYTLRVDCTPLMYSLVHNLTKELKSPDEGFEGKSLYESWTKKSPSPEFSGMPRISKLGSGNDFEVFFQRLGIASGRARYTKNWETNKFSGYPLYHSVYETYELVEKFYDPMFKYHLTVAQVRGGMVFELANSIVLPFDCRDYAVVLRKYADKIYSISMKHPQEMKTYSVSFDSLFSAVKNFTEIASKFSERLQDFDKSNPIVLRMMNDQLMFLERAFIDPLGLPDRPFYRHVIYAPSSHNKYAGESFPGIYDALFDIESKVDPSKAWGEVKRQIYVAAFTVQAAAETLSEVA

PSMA [2] = target: T1, PSMA; experiment: PSMA competitive binding, PC-3 PIP cells with [125I]MIP-1095; parameters: expressed in transfected cells; host or cells: PC-3 PIP cells; settings: n = 3 (a: n = 2); read-out: IC50 *(PC-3 PIP cells and [125I]MIP-1095)
Experimental: as §1, §2
Target sequence in this assay (Q04609 whole entry, species assumed): as the sequence (Q04609 whole entry) above

PSMA [3] = target: T1, PSMA; parameters: expressed in transfected cells; host or cells: PC-3 PIP cells; settings: ^131I labeled MIP-1095; read-out: PSMA binding affinity Ki; cited from earlier work
Target sequence in this assay (Q04609 whole entry, species assumed): as the sequence (Q04609 whole entry) above

Question: Which results are given for `O=C(O)CCC(C(=O)O)N1CCN(CC(=O)O)CCN(C(CCC(=O)NCC(=O)N[C@@H](Cc2ccc(OCC(=O)N[C@@H](Cc3ccccc3)C(=O)NCCCC[C@H](NC(=O)N[C@@H](CCC(=O)O)C(=O)O)C(=O)O)cc2)C(=O)O)C(=O)O)CCN(CC(=O)O)CC1` (stereo partly drawn) [Compound 4, (4S,11S,15S)-4-benzyl-1-(4-((2S)-2-(2-(4-(4,10-bis(carboxymethyl)-7-(1,3-dicarboxypropyl)-1,4,7,10-tetraazacyclododecan-1-yl)-4-carboxybutanamido)acetamido)-2-carboxyethyl)phenoxy)-2,5,13-trioxo-3,6,12,14-tetraazaheptadecane-11,15,17-tricarboxylic acid]?
Answer: IC50 (PSMA [1]): 28.7 ± 1.7 nM; IC50 (PSMA [2]): 33.9 ± 2.38 nM

Question: With `O=C(O)CC[C@H](NC(=O)N[C@@H](CCCCNC(=O)[C@H](Cc1ccccc1)NC(=O)COc1ccc(C[C@H](NC(=O)CNC(=O)CCC(C(=O)O)N2CCN(CC(=O)O)CCN(C(CCC(=O)NCCOCCOCCNC(=O)CCCc3ccc(I)cc3)C(=O)O)CCN(CC(=O)O)CC2)C(=O)O)cc1)C(=O)O)C(=O)O` (stereo partly drawn) [Compound 7, (4S,11S,15S)-4-benzyl-1-(4-((2S)-2-carboxy-2-(2-(4-carboxy-4-(7-(1-carboxy-18-(4-iodophenyl)-4,15-dioxo-8,11-dioxa-5,14-diazaoctadecyl)-4,10-bis(carboxymethyl)-1,4,7,10-tetraazacyclododecan-1-yl)butanamido)acetamido)ethyl)phenoxy)-2,5,13-trioxo-3,6,12,14-tetraazaheptadecane-11,15,17-tricarboxylic acid] as the molecule, how does the IC50 (PSMA [1]) read?
Answer: 15.4 ± 0.8 nM

Question: What about the IC50 (PSMA [2]) of the same molecule?
Answer: 13.6 ± 1.02 nM

Question: For `O=C(O)CC[C@H](NC(=O)N[C@@H](CCCCNC(=O)[C@H](Cc1ccccc1)NC(=O)COc1ccc(C[C@H](NC(=O)CNC(=O)CCC(C(=O)O)N2CCN(CC(=O)O)CCN(CC(=O)O)CCN(CC(=O)O)CC2)C(=O)NCC(=O)NC(P(=O)(O)O)P(=O)(O)O)cc1)C(=O)O)C(=O)O` (stereo partly drawn) [Compound 51, (((1S)-1-Carboxy-5-((2S)-2-(2-(4-((2S)-2-(2-(4-carboxy-4-(4,7,10-tris(carboxymethyl)-1,4,7,10-tetraazacyclododecan-1-yl)butanamido)acetamido)-3-((2-((diphosphonomethyl)amino)-2-oxoethyl)amino)-3-oxopropyl)phenoxy)acetamido)-3-phenylpropanamido)pentyl)carbamoyl)-L-glutamic acid], which IC50 (PSMA [1]) is on record?
Answer: 10.7 ± 1.6 nM

Question: Which Ki (PSMA [3]) does the source give for `O=C(O)CC[C@H](NC(=O)N[C@@H](CCCCNC(=O)Nc1ccc(I)cc1)C(=O)O)C(=O)O` [MIP-1095] here?
Answer: 4.6 nM

Question: For `O=C(O)CC[C@H](NC(=O)N[C@@H](CCCCNC(=O)[C@H](Cc1ccc2ccccc2c1)NC(=O)[C@H]1CC[C@H](CNC(=O)CN2CCN(CC(=O)O)CCN(CC(=O)O)CCN(CC(=O)O)CC2)CC1)C(=O)O)C(=O)O` [PSMA-617, 2-[3-(1-Carboxy-5-(3-naphthalen-2-yl-2-[(4-([2-(4,7,10-tris-carboxymethyl-1,4,7,10-tetraaza-cyclododec-1-yl)-acetylamino]-methyl)-cyclohexanecarbonyl)-amino]-Propionylamino)-pentyl)-ureido]-pentanedioic acid, reference compound], which IC50 (PSMA [1]) is on record?
Answer: 11.1 ± 0.8 nM

Question: And the IC50 (PSMA [2])?
Answer: 10.9 ± 0.37 nM
